Drawing on patent US10603320B2, “Compounds useful for inhibiting ROR-gamma-t” (Eli Lilly and Company, priority 2017, dated 2020), this text covers Ki, EC50 and IC50 for three compounds.

In general, Ki refers to a dissociation constant, usually derived from enzyme kinetics or from competition with a known ligand. A lower Ki goes with higher affinity. For orientation: EC50 means the concentration needed to bring the measured effect to its halfway point.

A value given as a limit tells only on which side of the number the result lay.

Assay [1] addresses human RAR-related orphan receptor beta (hRORb) (Homo sapiens (Human), UniProt Q92753). The assay can be described thus: RORb receptor-ligand competition binding assay. As to conditions: His-tagged hRORb, [3H]-labelled isoxazole benzoic acid ligand.
Assay [2] has as its target human RAR-related orphan receptor gamma (hRORg) (Homo sapiens (Human), UniProt P51449). Description: RORg receptor-ligand competition binding assay. As to conditions: His-tagged hRORg, [3H]-25-hydroxycholesterol; mean ± standard deviation.
Another assay has as its system IL-17 secretion in PBMC. Description: PBMC IL-17 Secretion ELISA. As to conditions: Homo sapiens; anti-CD3/anti-CD28/IL-23 stimulated PBMC, 48 hours; mean ± standard deviation; read-out: hPBMC IL-17 ELISA (EC50). The format is cell-based. The procedure:
(§1) PBMC's are isolated from whole blood buffy coats by first combining fresh buffy coats with equal volumes of phosphate buffered saline. Thirty five mL of PBS/buffy coat solution are then gently overlaid onto 15 mL of Ficoll in 50 mL conical tubes. Following centrifugation for 30 minutes at 500×g (with slow acceleration and deceleration) the top layer of plasma is discarded and the layer of cells along the Ficoll interface is collected and pooled. Each 250 mL tube is filled to the top with room temperature RPMI-1640 media. Tubes are spun for 10 minutes at 500×G (with slow acceleration and deceleration), the media is removed by aspiration, and the wash step is repeated. Cells are resuspended in ice cold Recovery Cell Culture Freezing Medium from Life Technologies (Catalog number 12648-010) on ice. The cell concentration is adjusted to 66.7 million cells/mL. Cell are slow frozen at −1° C./minute in vials with 100 million cells and stored in liquid nitrogen.
PBMC are brought out of thaw by resuspending with 1 mL of complete media (RPMI-1640 containing 30 mM HEPES, 100 units/mL penicillin, 100 μg/mL streptomycin, 3.25 mM L-Glutamine, 0.2 μM beta-mercaptoethanol, and 10% FBS) followed by the drop wise addition of 2 mL, 4 mL, 8 mL, and 16 mL of complete media with gentle swirling. Cells are spun down for 5 minutes and the cell pellet is resuspended in complete media. Clumps of cells are broken up by running the cell solution through a 23 gauge syringe needle and a […] cell strainer. One hundred thousand cells per well are added to 384 well polystyrene tissue culture treated flat bottomed plates in a total of 30 μL. […]
Following the incubation period the plates are spun at 200×g for five minutes. […] Absorbance at 492 nm is measured with the Envision multi-label plate reader. […] IC50's for inhibition of IL-17 secretion is calculated based on converted values using a standard 4-parameter fit with maximum inhibition determined from the average values of wells with no added stimulants nor compounds and minimum inhibition from the average values of wells with stimulants alone and no added compound.
Background: In an ELISA, binding on a coated surface is turned into a signal by an enzyme label.

For a further assay, the system named is PBMC. Description: cells. The format is cell-based. As to conditions: Homo sapiens, 48 h, read-out: Cell TiterGlo Viability (EC50). On the procedure:
as §1, with “[…].” for “The cell concentration is adjusted to 66.7 million cells/mL. Cell are slow frozen at −1° C./minute in vials with 100 million cells and stored in liquid nitrogen.”
PBMC are brought out of thaw by resuspending with 1 mL of complete media (RPMI-1640 containing 30 mM HEPES, 100 units/mL penicillin, 100 μg/mL streptomycin, 3.25 mM L-Glutamine, 0.2 μM beta-mercaptoethanol, and 10% FBS) followed by the drop wise addition of 2 mL, 4 mL, 8 mL, and 16 mL of complete media with gentle swirling. Cells are spun down for 5 minutes and the cell pellet is resuspended in complete media. Clumps of cells are broken up by running the cell solution through a 23 gauge syringe needle and a 40 μM cell strainer. […].
Equal volumes of Cell TITERGLO® cell viability testing reagent (Promega Cat #G7573) are added to the cells remaining in the plates, and following a fifteen minute incubation with gentle shaking at room temperature luminescence is measured with the Envision multi-label plate reader. Percent cell death is calculated by setting 100% activity (cell death) to zero luminescence units and minimum activity (max number of viable cells) as the average luminescence units of wells containing stimulants alone and no added compound. IC50's are calculated using a standard four parameter fit.
On the technique in general: ATP-based viability assays read luminescence as a measure of living cells.

Assay [3] concerns the target human RORg ligand binding domain fused to yeast GAL4 DNA binding domain (Homo sapiens (Human), UniProt P51449). Description: HEK293 RORg GAL4 Receptor-Reporter Assay. As to conditions: HEK293 cells, RORg-GAL4/pGL4.31 luciferase reporter, 18 hours; mean ± standard deviation; read-out: hIC50. It counts as cell-based. On the procedure:
As an indicator of inverse agonist activity, an RAR-related orphan receptor gamma (RORg) receptor-reporter assay (RORg-GAL4/pGL4.31) is performed in HEK293 cells. HEK293 cells are co-transfected using Fugene™ reagent. A reporter plasmid containing a GAL4 binding domain and a minimal adenoviral promoter upstream of a firefly luciferase gene is co-transfected with a plasmid constitutively expressing a human RORg ligand binding domain fused to yeast GAL4 DNA binding domain. Cells are transfected in T150 cm^2 flasks in MEM media without FBS. After 18 hours incubation, transfected cells are trypsinized, plated in 96-well microtiter plates in 3:1 DMEM-F12 media containing 10% FBS, incubated for 4 hours and then exposed to various concentrations of test compounds ranging from about 0.05 nM to 10 μM. After 18 hours of incubations with compounds, cells are lysed and luciferase activity is quantified using standard techniques. Data is fit to a 4 parameter-fit logistics to determine IC50 values.

Assay [4] has as its target human RAR-related orphan receptor alpha (hRORa) (Homo sapiens (Human), UniProt P35398). The assay can be described thus: RORa receptor-ligand competition binding assay. The conditions noted are these: His-tagged hRORa, [3H]-25-hydroxycholesterol; mean ± standard deviation.

human RAR-related orphan receptor gamma (hRORg), sequence (P51449 whole entry): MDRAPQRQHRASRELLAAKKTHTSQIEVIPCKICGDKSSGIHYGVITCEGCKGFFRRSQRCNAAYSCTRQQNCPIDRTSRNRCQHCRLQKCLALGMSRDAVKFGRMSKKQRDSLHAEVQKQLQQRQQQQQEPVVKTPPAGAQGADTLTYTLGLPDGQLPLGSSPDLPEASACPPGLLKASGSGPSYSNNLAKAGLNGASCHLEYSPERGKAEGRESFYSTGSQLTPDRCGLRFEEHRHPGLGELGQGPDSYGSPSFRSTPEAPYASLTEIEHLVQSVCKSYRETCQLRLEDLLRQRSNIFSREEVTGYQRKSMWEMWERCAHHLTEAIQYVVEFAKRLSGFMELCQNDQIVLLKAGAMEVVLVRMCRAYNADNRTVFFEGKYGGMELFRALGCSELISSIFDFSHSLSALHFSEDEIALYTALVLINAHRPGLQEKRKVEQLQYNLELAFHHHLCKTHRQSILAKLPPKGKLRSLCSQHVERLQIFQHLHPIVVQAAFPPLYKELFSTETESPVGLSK
human RAR-related orphan receptor beta (hRORb), sequence (Q92753 whole entry): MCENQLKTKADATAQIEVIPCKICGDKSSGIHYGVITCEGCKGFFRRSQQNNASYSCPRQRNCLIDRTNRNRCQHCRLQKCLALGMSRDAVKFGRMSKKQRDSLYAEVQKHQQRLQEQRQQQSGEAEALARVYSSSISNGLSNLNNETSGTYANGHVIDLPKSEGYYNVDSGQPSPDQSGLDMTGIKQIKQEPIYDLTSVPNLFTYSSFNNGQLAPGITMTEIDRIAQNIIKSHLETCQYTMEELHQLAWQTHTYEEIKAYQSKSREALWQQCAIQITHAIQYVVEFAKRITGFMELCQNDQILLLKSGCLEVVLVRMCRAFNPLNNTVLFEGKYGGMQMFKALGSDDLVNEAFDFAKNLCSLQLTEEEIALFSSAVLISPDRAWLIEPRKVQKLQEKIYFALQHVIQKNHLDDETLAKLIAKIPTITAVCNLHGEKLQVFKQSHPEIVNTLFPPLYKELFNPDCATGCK
human RORg ligand binding domain fused to yeast GAL4 DNA binding domain, sequence (P51449 269-508): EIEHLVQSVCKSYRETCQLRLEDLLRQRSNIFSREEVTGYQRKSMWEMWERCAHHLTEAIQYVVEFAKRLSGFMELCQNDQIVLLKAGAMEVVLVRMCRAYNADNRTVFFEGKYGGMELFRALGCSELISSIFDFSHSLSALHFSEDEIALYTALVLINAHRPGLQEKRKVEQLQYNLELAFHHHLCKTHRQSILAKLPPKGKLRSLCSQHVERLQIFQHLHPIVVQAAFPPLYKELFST
human RAR-related orphan receptor alpha (hRORa), sequence (P35398 whole entry): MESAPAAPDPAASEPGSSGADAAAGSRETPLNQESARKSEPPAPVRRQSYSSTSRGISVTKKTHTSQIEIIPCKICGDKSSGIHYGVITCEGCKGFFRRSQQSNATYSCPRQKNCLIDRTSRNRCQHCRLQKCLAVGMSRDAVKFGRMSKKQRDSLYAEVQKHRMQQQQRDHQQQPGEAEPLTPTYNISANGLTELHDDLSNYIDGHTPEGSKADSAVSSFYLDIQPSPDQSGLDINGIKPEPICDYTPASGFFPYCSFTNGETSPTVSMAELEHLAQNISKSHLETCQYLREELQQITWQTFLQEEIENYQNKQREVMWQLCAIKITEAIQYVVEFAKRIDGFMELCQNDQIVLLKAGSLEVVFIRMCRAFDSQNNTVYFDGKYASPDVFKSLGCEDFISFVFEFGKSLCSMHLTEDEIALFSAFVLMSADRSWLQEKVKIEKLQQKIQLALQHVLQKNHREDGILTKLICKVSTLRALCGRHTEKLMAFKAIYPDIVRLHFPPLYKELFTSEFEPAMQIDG

In the case of `CCS(=O)(=O)c1ccc(CNC(=O)c2cc3c(s2)C2(CCN([C@H](C)c4cnc(C(F)(F)F)nc4)CC2)OC2(CC2)C3)nc1` [Example 7, N-{[5-(Ethylsulfonyl)pyridin-2-yl]methyl}-1″-(1R)-1-[2-(trifluoromethyl)pyrimidin-5-yl]ethyl-4′H-dispiro[cyclopropane-1,5′-thieno[2,3-c]pyran-7′,4″-piperidine]-2′-carboxamide], the inhibitory constant (Ki) in assay [1] is over 12500 nM; in assay [2], 6.4 ± 2.62 nM. Further, the EC50 with IL-17 secretion in PBMC is 14.6 ± 8.24 nM; with PBMC, over 1000 nM. Besides, in assay [3], the IC50 is 22.3 ± 23.8 nM.

With `CCS(=O)(=O)c1ccc(CNC(=O)c2cc3c(s2)C2(CCN(C(C)c4ccc(C#N)cc4)CC2)OC2(CC2)C3)cc1` (single isomer, unassigned; isomer 1) [Example 8, 1′-[1-(4-Cyanophenyl)ethyl]-5,5-spirocyclopropane-N-[(4-ethylsulfonylphenyl)methyl]spiro[4H-thieno[2,3-c]pyran-7,4′-piperidine]-2-carboxamide isomer 1], the results for the Ki in assay [1], in assay [2] and in assay [4] were over 12500 nM, 6 ± 1.81 nM and over 20400 nM, respectively. In addition, the values for the EC50 in the assay on IL-17 secretion in PBMC and in the assay with PBMC were 10.9 ± 6.44 nM and over 1000 nM, respectively. Moreover, the IC50 in assay [3] is 34.4 ± 6.01 nM.

`CCS(=O)(=O)c1ccc(CNC(=O)c2cc3c(s2)C2(CCN([C@H](C)c4cnc(C(F)(F)F)nc4)CC2)OC(C)(C)C3)nc1` [Example 5, N-{[5-(Ethylsulfonyl)pyridin-2-yl]methyl}-5′,5′-dimethyl-1-{(1R)-1-[2-(trifluoromethyl)pyrimidin-5-yl]ethyl}-4′,5′-dihydrospiro[piperidine-4,7′-thieno[2,3-c]pyran]-2′-carboxamide]: the Ki was over 12500 nM in assay [1] and 6.96 ± 3.89 nM in assay [2]. The EC50 is 11 ± 7.67 nM with IL-17 secretion in PBMC and over 1000 nM in the assay with PBMC. Also, in assay [3], the IC50 was determined as 16.7 ± 20.3 nM.
